Measured values taken from EP0059645A1, “Method and kit for identification of beta-lactamases” (NATIONAL RESEARCH DEVELOPMENT CORPORATION, priority 1981, dated 1982).
Marks after values point to notes of the source that are not given here.

Columns and labels:
K17 = assay: Competitive assay with nitrocefin (RSAI); assay type: biochemical, Klebsiella 17
PSE-1 = PSE-1 (Pseudomonas aeruginosa, UniProt Q03170); assay: Competitive assay with nitrocefin (RSAI); assay type: biochemical, Ps.aerug. 1937E; parameters: Normally, therefore, the beta-lactamase has to be extracted from the cells for the purpose of the present invention; endogenous in cells
PSE-3 [1] = assay: Competitive assay with nitrocefin (RSAI); assay type: biochemical, Ps.aerug. 1920E
HMS-1 [2] = assay: 6-well visual test with nitrocefin; conditions: 3 minutes, room temperature
OXA-3 [3] = target: T1, OXA-3 (Pseudomonas aeruginosa, UniProt Q51429); assay: 6-well visual test with nitrocefin; conditions: 3 minutes, room temperature
PSE-3 [4] = assay: 6-well visual test with nitrocefin; conditions: 3 minutes, room temperature
Ps +AMP (Chromosomal) = Ps +AMP (Chromosomal) (Pseudomonas aeruginosa, UniProt P24735); assay: 6-well visual test with nitrocefin; conditions: 3 minutes, room temperature
OXA-2 [5] = target: T2, OXA-2 (Escherichia coli, UniProt P0A1V9); assay: 6-well visual test with nitrocefin; conditions: 3 minutes, room temperature
[6] = target: T3, Chromosomal, induced beta-lactamase enzyme (Pseudomonas aeruginosa, UniProt P24735); assay: Competitive assay with nitrocefin (RSAI); assay type: biochemical, Ps.aerug. 1937E + ampicillin
T3 construct: Normally, therefore, the beta-lactamase has to be extracted from the cells for the purpose of the present invention; endogenous in cells; host or cells: Pseudomonas aeruginosa 1937E grown with ampicillin

TEM-2 = TEM-2 (Escherichia coli, UniProt P62593, Q37K); assay: Competitive assay with nitrocefin (RSAI); assay type: biochemical, E. coli 1725E
K10317 = assay: Competitive assay with nitrocefin (RSAI); assay type: biochemical, K.aerog. 10317
[7] = target: Chromosomal, hyper-induced beta-lactamase enzyme (Escherichia coli, UniProt P00811); assay: Competitive assay with nitrocefin (RSAI); assay type: biochemical, E. coli SNU35; parameters: Normally, therefore, the beta-lactamase has to be extracted from the cells for the purpose of the present invention; endogenous in cells; host or cells: E. coli SNU 35 (artificially produced strain)
OXA-1 [8] = target: T4, OXA-1 (Escherichia coli, UniProt P13661); assay: Competitive assay with nitrocefin (RSAI); assay type: biochemical, E. coli 1527E; parameters: the beta-lactamase has to be extracted from the cells for the purpose of the present invention; made in house; host or cells: E. coli 1527E according to the earlier reading (crude cell extract)
OXA-1 [9] = target: T4, OXA-1; assay: 6-well visual test with nitrocefin; conditions: 3 minutes, room temperature
PSE-4 = PSE-4 (Pseudomonas aeruginosa, UniProt P16897); assay: 6-well visual test with nitrocefin; conditions: 3 minutes, room temperature
TEM-2 beta-lactamase = TEM-2 beta-lactamase (Escherichia coli, UniProt P62593, Q37K); assay type: biochemical, E. coli C9 RP4; conditions: from kinetics of nitrocefin cleavage
OXA-3 [10] = target: T1, OXA-3; assay: Competitive assay with nitrocefin (RSAI); assay type: biochemical, E. coli R57B; parameters: Normally, therefore, the beta-lactamase has to be extracted from the cells for the purpose of the present invention; endogenous in cells
SHV-1 [11] = target: T5, SHV-1 (Escherichia coli, UniProt P0AD63); assay: Competitive assay with nitrocefin (RSAI); assay type: biochemical, E. coli 2008E; parameters: the beta-lactamase has to be extracted from the cells for the purpose of the present invention; made in house; host or cells: E. coli 2008E (crude cell extract)
HMS-1 [12] = assay: Competitive assay with nitrocefin (RSAI); assay type: biochemical, E. coli 1946
SHV-1 [13] = target: T5, SHV-1; assay: 6-well visual test with nitrocefin; conditions: 3 minutes, room temperature
OXA-2 [14] = target: T2, OXA-2; assay: Competitive assay with nitrocefin (RSAI); assay type: biochemical, E. coli R46; parameters: the beta-lactamase has to be extracted from the cells for the purpose of the present invention; made in house; host or cells: E. coli carrying R46 according to the earlier reading (crude cell extract)
[15] = target: T6, Chromosomal, constitutive beta-lactamase enzyme (Enterobacter cloacae, UniProt P05364); assay: Competitive assay with nitrocefin (RSAI); assay type: biochemical, E. cloacae
T6 construct: Normally, therefore, the beta-lactamase has to be extracted from the cells for the purpose of the present invention; endogenous in cells

E. cloacae = E. cloacae (Enterobacter cloacae, UniProt P05364); assay: 6-well visual test with nitrocefin; conditions: 3 minutes, room temperature
[16] = well A: Cefoxitin 20:1 to nitrocefin
[17] = well E: Cefoxitin 200:1 to nitrocefin

## CO[C@@]1(NC(=O)Cc2cccs2)C(=O)N2C(C(=O)O)=C(COC(N)=O)CS[C@@H]21 [Cefoxi-tin, cefoxitin]
K17
  RSAI: 1.6
PSE-1
  RSAI: 20
PSE-3 [1]
  RSAI: 11.4
HMS-1 [2]; [16]
  Score in 6-well visual test: ++
HMS-1 [2]; [17]
  Score in 6-well visual test: -
OXA-3 [3]; [16]
  Score in 6-well visual test: -
OXA-3 [3]; [17]
  Score in 6-well visual test: -
PSE-3 [4]; [16]
  Score in 6-well visual test: +
PSE-3 [4]; [17]
  Score in 6-well visual test: -
Ps +AMP (Chromosomal); [16]
  Score in 6-well visual test: -
Ps +AMP (Chromosomal); [17]
  Score in 6-well visual test: -
OXA-2 [5]; [16]
  Score in 6-well visual test: -
OXA-2 [5]; [17]
  Score in 6-well visual test: -
[6]
  RSAI: 0.003
TEM-2
  RSAI: 60*
K10317
  RSAI: 350*
[7]
  RSAI: 0.0008
OXA-1 [8]
  RSAI: 20
OXA-1 [9]; [16]
  Score in 6-well visual test: ++
OXA-1 [9]; [17]
  Score in 6-well visual test: -
PSE-4; [16]
  Score in 6-well visual test: +
PSE-4; [17]
  Score in 6-well visual test: -
TEM-2 beta-lactamase
  nature of the binding to the enzyme: irreversible binding
OXA-3 [10]
  RSAI: 0.004
SHV-1 [11]
  RSAI: 600
HMS-1 [12]
  RSAI: 60
SHV-1 [13]; [16]
  Score in 6-well visual test: ++
SHV-1 [13]; [17]
  Score in 6-well visual test: +
OXA-2 [14]
  RSAI: 0.2
[15]
  RSAI: 0.01
E. cloacae; [16]
  Score in 6-well visual test: -
E. cloacae; [17]
  Score in 6-well visual test: -
